Literature values as cited in patent US20050267091A1 (priority 2004, published 2005).

Tests used:
[1] = in vivo
[2] = not given; remark: listed apart in the source

SMILES: COCc1c(C(C)C)nc(C(C)C)c(/C=C/[C@@H](O)C[C@@H](O)CC(=O)O)c1-c1ccc(F)cc1 [Baycol®, cervastatin]
- deaths linked to the drug (market withdrawal August 2001): 31 deaths

SMILES: CC(C)c1nc(N(C)S(C)(=O)=O)nc(-c2ccc(F)cc2)c1/C=C/[C@@H](O)C[C@@H](O)CC(=O)O [Crestor®, rosuvastatin]
- cases of serious side effects (cited by consumer advocacy group, March 2004): 16 cases

SMILES: O=C(O)c1cccnc1 [Niacin]
- increase of blood levels of HDL cholesterol [1]: up to 35%
- reduction of total cholesterol [1]: up to 15%
- reduction of triglyceride levels [1]: up to 30%
- patients affected by flushing (redness) of the face and neck ([2]; most common side effect): more than three quarters of patients
- patients who discontinue because of adverse effects ([2]; patients treated with standard niacin): more than 40%
